Test results as given in patent US12233161B1, “Lipids and lipid nanoparticle formulations” (LONGUIDE BIOPHARMA CORPORATION, priority 2024, dated 2025).
Where “and” joins values, the source holds several entries; their conditions need not be identical. Identical values can stand only once.

Assays:
mice [1] = assay: In vivo delivery of FLuc-mRNA lipid nanoparticles in mice, in vivo imaging (IVIS)
Method in brief: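 Mice (n=3) received about 75 μL FLuc-mRNA LNP per mouse intramuscularly (rectus femoris), intravenously (tail vein), intraperitoneally or subcutaneously (back). After injection, D-luciferin (200 μL, 15 mg/mL) was given i.p. 10-15 min before IVIS imaging.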

[2] = Particle size and PDI of nucleic acid lipid nanoparticle preparations by dynamic light scattering; assay type: physicochemical
Method in brief: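 LNP solution (about 0.04 mg/mL mRNA before dilution) was diluted in ultrapure water and mixed by gentle pipetting. Particle size and PDI were then measured by dynamic light scattering.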

[3] = Potential characterization of nucleic acid lipid nanoparticle preparations; assay type: physicochemical
Method in brief: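 Zeta potential was read on a Malvern ZEN3700 after diluting 20 μL lipid nanoparticle solution (about 0.04 mg/mL mRNA) into 780 μL ultrapure water. Alternatively, a 27.5 μL sample in 200 μL water was first sized by dynamic light scattering, then diluted with 600 μL more water for potential measurement.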

mice [4] = assay: In vivo delivery of lipid nanoparticles co-loaded with FLuc-mRNA and Cy5-siRNA in mice; details: IV, 1.00:10.00:33.00:56.00, N/P 30
Method: Lipid nanoparticles loaded with nucleic acid drugs were prepared according to step 2, replacing FLuc-mRNA with a mixture of FLuc-mRNA (Hongene Biotech Corporation, Shanghai) and Cy5-siRNA. Each mouse was administered a dose of 3 μg FLuc-mRNA and 3 μg Cy5-siRNA. After a certain period of time, in vivo imaging (PerkinElmer, IVIS Lumina III) was performed. For the detection of FLuc-mRNA expression, 200 μL of a 15 mg/mL D-Luciferin working solution was injected intraperitoneally ten to fifteen minutes before imaging, followed by imaging analysis using the in vivo imaging system. 9. Investigation of the Delivery Efficacy of Lipid Nanoparticle Formulations for Compounds in Mice

[5] = DMG-PEG2000:DSPC:Chol:Lipid 1.00:4.00:65.00:30.00, N/P 6, IV, liver
[6] = DMG-PEG2000:DSPC:Chol:Lipid 1.00:4.00:65.00:30.00, N/P 6, IV, lung
[7] = DMG-PEG2000:DSPC:Chol:Lipid 1.00:4.00:65.00:30.00, N/P 6, IV, spleen
[8] = DMG-PEG2000:DSPC:Chol:Lipid 5.00:10.00:29.00:56.00, N/P 42, IV, liver
[9] = DMG-PEG2000:DSPC:Chol:Lipid 5.00:10.00:29.00:56.00, N/P 42, IV, lung
[10] = DMG-PEG2000:DSPC:Chol:Lipid 5.00:10.00:29.00:56.00, N/P 42, IV, spleen
[11] = mRNA LNP, 1.00:10.00:33.00:56.00, N/P 42, IV, liver
[12] = mRNA LNP, 1.00:10.00:33.00:56.00, N/P 42, IV, lung
[13] = mRNA LNP, 1.00:10.00:33.00:56.00, N/P 42, IV, spleen
[14] = DMG-PEG2000:DSPC:Chol:Lipid 1.00:4.00:65.00:30.00, N/P 6, mRNA LNP
[15] = DMG-PEG2000:DSPC:Chol:Lipid 2.18:17.32:60.50:20.00, N/P 30, mRNA LNP
[16] = DMG-PEG2000:DSPC:Chol:Lipid 5.00:10.00:29.00:56.00, N/P 42, mRNA LNP
[17] = DMG-PEG2000:DSPC:Chol:compound 1.00:10.00:33.00:56.00, N/P 42
[18] = DMG-PEG2000:DSPC:Chol:compound 1.00:10.00:33.00:56.00, N/P 48
[19] = LNP co-loaded with Fluc-mRNA and Cy5-siRNA, DMG-PEG2k:DSPC:Chol:L0263 1.00:10.00:33.00:56.00, N/P 30
[20] = mRNA LNP, 1.00:10.00:33.00:56.00, N/P 42

CCCCCCCCCCCCNC(=O)C(O)CN(CCCN(C)CCCN(CC(O)C(=O)NCCCCCCCCCCCC)CC(O)C(=O)NCCCCCCCCCCCC)CC(O)C(=O)NCCCCCCCCCCCC (centres unmarked) [Compound L0263]
IVIS (mice [1]; DMG-PEG2000:DSPC:Chol:Lipid 1.00:4.00:65.00:30.00, N/P 6, IV, body): 1.07 × 10^7 | % of organ targeting (mice [1]; [5]): 10.71% | IVIS (mice [1]; [5]): 1.34 × 10^6 | % of organ targeting (mice [1]; [6]): 12.46% | IVIS (mice [1]; [6]): 1.55 × 10^6 | % of organ targeting (mice [1]; [7]): 76.83% | IVIS (mice [1]; [7]): 9.58 × 10^6 | IVIS (mice [1]; DMG-PEG2000:DSPC:Chol:Lipid 2.18:17.32:60.50:20.00, N/P 30, IM, whole body scan): 6.05 × 10^6 | IVIS (mice [1]; DMG-PEG2000:DSPC:Chol:Lipid 5.00:10.00:29.00:56.00, N/P 42, IV, body): 1.83 × 10^8 | % of organ targeting (mice [1]; [8]): 2.01% | IVIS (mice [1]; [8]): 4.24 × 10^6 | % of organ targeting (mice [1]; [9]): 90.12% | IVIS (mice [1]; [9]): 1.90 × 10^8 | % of organ targeting (mice [1]; [10]): 7.87% | IVIS (mice [1]; [10]): 1.66 × 10^7 | IVIS (mice [1]; IP, organ not given, DMG-PEG2000:DSPC:Chol:compound 1.00:10.00:33.00:56.00, N/P 42, Fluc-mRNA): 5.82E+09 | IVIS (mice [1]; IV, body, DMG-PEG2000:DSPC:Chol:compound 1.00:10.00:33.00:56.00, N/P 48, Fluc-mRNA): 7.08E+08 | % of organ targeting (mice [1]; IV, liver, DMG-PEG2000:DSPC:Chol:compound 1.00:10.00:33.00:56.00, N/P 48): 0.44% | IVIS (mice [1]; IV, liver, DMG-PEG2000:DSPC:Chol:compound 1.00:10.00:33.00:56.00, N/P 48, Fluc-mRNA): 1.71E+07 | % of organ targeting (mice [1]; IV, lung, DMG-PEG2000:DSPC:Chol:compound 1.00:10.00:33.00:56.00, N/P 48): 98.92% | IVIS (mice [1]; IV, lung, DMG-PEG2000:DSPC:Chol:compound 1.00:10.00:33.00:56.00, N/P 48, Fluc-mRNA): 3.83E+09 | % of organ targeting (mice [1]; IV, spleen, DMG-PEG2000:DSPC:Chol:compound 1.00:10.00:33.00:56.00, N/P 48): 0.63% | IVIS (mice [1]; IV, spleen, DMG-PEG2000:DSPC:Chol:compound 1.00:10.00:33.00:56.00, N/P 48, Fluc-mRNA): 2.46E+07 | in vivo delivery efficiency as compared to the benchmark compound SM102 (mice [1]; certain formulations, Table 2): superior in vivo delivery efficiency | tissue-targeting specificity (lung vs spleen depending on molar percentage of compound) (mice [1]; certain formulations, Table 2): strong tissue-targeting specificity | % of organ targeting (mice [1]; [11]): 0.46% | IVIS (mice [1]; [11]): 8.07E+06 | % of organ targeting (mice [1]; [12]): 99.18% | IVIS (mice [1]; [12]): 1.74E+09 | % of organ targeting (mice [1]; [13]): 0.36% | IVIS (mice [1]; [13]): 6.30E+06 | IVIS (mice [1]; mRNA LNP, DMG-PEG2000:DSPC:Chol:lipid 1.00:10.00:33.00:56.00, N/P 42, IV, body): 2.93E+08 | PDI [2, 14]: 0.12 ± 0.01 | Particle size [2, 14]: 110.83 ± 1.05 nm | PDI [2, 15]: 0.11 ± 0.02 | Particle size [2, 15]: 126.23 ± 1.69 nm | PDI [2, 16]: 0.12 ± 0.01 | Particle size [2, 16]: 126.40 ± 2.08 nm | PDI [2, 17]: 0.13 and 0.15 | Particle size (nm) [2, 17]: 86.62 nm and 139.47 nm and 118.13 nm | PDI [2, 18]: 0.13 | Particle size (nm) [2, 18]: 118.33 nm | PDI [2, 19]: 0.14 | Particle size (nm) [2, 19]: 95.5 nm | PDI [2, 20]: 0.14 | Particle size (nm) [2, 20]: 97.48 nm | Zeta potential (mV) [3, 17]: 11.54 mV | Zeta potential (mV) [3, 18]: 16.93 mV | Zeta potential (mV) [3, 19]: 12.77 mV | Zeta potential (mV) [3, 20]: 11.97 mV | % of organ targeting (Fluc) (mice [4]; 10 min, Heart): 0.2% | Fluc IVIS/g Organ (mice [4]; 10 min, Heart): 9.76E+05 | % of organ targeting (Fluc) (mice [4]; 10 min, Kidney): 0.1% | Fluc IVIS/g Organ (mice [4]; 10 min, Kidney): 3.33E+05 | % of organ targeting (Fluc) (mice [4]; 10 min, Liver): 0.1% | Fluc IVIS/g Organ (mice [4]; 10 min, Liver): 5.97E+05 | % of organ targeting (Fluc) (mice [4]; 10 min, Lung): 97.9% | Fluc IVIS/g Organ (mice [4]; 10 min, Lung): 4.98E+08 | % of organ targeting (Fluc) (mice [4]; 10 min, Spleen): 1.7% | Fluc IVIS/g Organ (mice [4]; 10 min, Spleen): 8.58E+06 | % of organ targeting (Fluc) (mice [4]; 20 min, Heart): 0.2% | Fluc IVIS/g Organ (mice [4]; 20 min, Heart): 3.16E+06 | % of organ targeting (Fluc) (mice [4]; 20 min, Kidney): 0.0% | Fluc IVIS/g Organ (mice [4]; 20 min, Kidney): 4.37E+05 | % of organ targeting (Fluc) (mice [4]; 20 min, Liver): 0.1% | Fluc IVIS/g Organ (mice [4]; 20 min, Liver): 1.27E+06 | % of organ targeting (Fluc) (mice [4]; 20 min, Lung): 99.2% | Fluc IVIS/g Organ (mice [4]; 20 min, Lung): 1.98E+09 | % of organ targeting (Fluc) (mice [4]; 20 min, Spleen): 0.6% | Fluc IVIS/g Organ (mice [4]; 20 min, Spleen): 1.13E+07 | % of organ targeting (Fluc) (mice [4]; 1 h, Heart): 0.2% | Fluc IVIS/g Organ (mice [4]; 1 h, Heart): 6.32E+06 | % of organ targeting (Fluc) (mice [4]; 1 h, Kidney): 0.0% | Fluc IVIS/g Organ (mice [4]; 1 h, Kidney): 1.67E+06 | % of organ targeting (Fluc) (mice [4]; 1 h, Liver): 0.1% | Fluc IVIS/g Organ (mice [4]; 1 h, Liver): 3.51E+06 | % of organ targeting (Fluc) (mice [4]; 1 h, Lung): 98.1% | Fluc IVIS/g Organ (mice [4]; 1 h, Lung): 3.70E+09 | % of organ targeting (Fluc) (mice [4]; 1 h, Spleen): 1.6% | Fluc IVIS/g Organ (mice [4]; 1 h, Spleen): 5.86E+07
